Data taken from ChEMBL document CHEMBL1201862, “PubChem BioAssay data set” (2004).
Where “and” joins values, the source holds several entries; their conditions need not be identical. Equal values may be shown once. Calls of active or inactive are those of the source.

Assays:
[1] = target: Cytochrome P450 3A4 (Homo sapiens, UniProt P08684);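 note: CYP3A4 tested as one member of a cytochrome P450 panel screen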
[2] = target: Cytochrome P450 2D6 (Homo sapiens, UniProt P10635);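 note: CYP2D6 member of a cytochrome P450 panel assay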
Cytochrome P450 2D6, sequence (P10635 whole entry): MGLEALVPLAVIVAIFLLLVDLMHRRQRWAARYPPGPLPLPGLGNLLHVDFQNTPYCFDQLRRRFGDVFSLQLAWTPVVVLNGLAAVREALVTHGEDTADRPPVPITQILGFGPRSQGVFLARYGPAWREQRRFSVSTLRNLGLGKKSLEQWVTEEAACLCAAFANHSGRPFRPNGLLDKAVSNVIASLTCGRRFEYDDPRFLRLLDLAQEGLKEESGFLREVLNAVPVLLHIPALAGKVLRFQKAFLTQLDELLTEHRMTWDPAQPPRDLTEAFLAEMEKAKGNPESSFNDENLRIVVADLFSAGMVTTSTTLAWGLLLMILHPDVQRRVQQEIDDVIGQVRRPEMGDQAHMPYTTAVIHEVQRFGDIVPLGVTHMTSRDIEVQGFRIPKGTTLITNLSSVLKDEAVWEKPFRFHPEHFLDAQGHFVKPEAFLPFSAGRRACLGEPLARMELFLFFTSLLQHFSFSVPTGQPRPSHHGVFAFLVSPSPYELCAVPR

[3] = target: T1, Protein skinhead-1 (Caenorhabditis elegans, UniProt P34707); type: functional
T1 sequence (P34707 whole entry): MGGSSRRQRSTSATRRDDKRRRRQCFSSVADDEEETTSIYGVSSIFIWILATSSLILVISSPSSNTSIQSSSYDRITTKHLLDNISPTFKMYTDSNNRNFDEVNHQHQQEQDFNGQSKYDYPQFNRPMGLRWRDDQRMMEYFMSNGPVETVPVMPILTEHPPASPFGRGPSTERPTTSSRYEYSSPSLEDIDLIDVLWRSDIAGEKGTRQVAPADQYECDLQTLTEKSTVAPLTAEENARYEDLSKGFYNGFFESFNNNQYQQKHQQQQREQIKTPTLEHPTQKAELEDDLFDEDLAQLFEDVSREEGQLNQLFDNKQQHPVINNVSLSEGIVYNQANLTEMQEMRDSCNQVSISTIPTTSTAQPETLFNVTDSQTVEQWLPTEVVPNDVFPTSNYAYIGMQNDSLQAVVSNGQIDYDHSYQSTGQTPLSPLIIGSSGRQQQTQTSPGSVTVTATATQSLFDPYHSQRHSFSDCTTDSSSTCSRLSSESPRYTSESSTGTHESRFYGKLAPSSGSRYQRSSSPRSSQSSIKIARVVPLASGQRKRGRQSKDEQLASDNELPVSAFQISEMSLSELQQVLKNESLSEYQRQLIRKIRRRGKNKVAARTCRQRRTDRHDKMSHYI

[4] = target: T2, Heat shock factor protein 1 (Mus musculus, UniProt P38532); test: decrease of HSF1-responsive luciferase luminescence – cell-based, NIH3T3, dose retest, confirmation (AID 2382); type: functional;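 note: NIH3T3 fibroblasts with HSF1-driven luciferase reporter stressed by proteasome inhibitor MG132; luminescence from HSF1-driven luciferase expression after 8 hours of MG132 stress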
T2 sequence (P38532 whole entry): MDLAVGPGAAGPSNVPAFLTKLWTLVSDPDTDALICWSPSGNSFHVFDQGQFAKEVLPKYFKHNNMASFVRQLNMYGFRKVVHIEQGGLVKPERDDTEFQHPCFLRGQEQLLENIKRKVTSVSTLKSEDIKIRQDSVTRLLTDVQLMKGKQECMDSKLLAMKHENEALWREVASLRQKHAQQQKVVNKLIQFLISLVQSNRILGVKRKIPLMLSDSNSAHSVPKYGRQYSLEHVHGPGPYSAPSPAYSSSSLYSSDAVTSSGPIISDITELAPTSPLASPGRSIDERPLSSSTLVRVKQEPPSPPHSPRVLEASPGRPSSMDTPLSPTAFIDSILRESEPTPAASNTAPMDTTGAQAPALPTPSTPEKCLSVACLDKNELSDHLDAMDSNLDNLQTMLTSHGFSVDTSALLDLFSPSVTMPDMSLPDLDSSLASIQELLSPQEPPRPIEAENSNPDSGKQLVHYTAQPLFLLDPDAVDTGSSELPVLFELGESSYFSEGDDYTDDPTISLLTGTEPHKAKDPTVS

[5] = target: T3, Cytochrome P450 1A2 (Homo sapiens, UniProt P05177);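 note: PubChem cytochrome P450 panel assay, CYP1A2 panel member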
T3 sequence (P05177 whole entry): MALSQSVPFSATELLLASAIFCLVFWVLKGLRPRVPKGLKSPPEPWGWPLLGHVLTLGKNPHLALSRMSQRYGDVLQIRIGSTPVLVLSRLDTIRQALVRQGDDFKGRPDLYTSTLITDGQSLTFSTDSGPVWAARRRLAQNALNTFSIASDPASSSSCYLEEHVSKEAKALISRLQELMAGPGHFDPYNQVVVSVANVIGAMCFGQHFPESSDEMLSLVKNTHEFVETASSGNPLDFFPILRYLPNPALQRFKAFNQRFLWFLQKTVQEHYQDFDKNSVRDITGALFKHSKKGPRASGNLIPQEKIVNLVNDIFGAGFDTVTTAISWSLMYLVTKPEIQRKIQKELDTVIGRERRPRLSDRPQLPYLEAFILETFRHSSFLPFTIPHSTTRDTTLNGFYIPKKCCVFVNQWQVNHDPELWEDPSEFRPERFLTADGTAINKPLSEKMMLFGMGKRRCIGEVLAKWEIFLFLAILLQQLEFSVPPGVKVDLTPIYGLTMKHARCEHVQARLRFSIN

[6] = Luminescence Cell-Based Dose Retest to Confirm Inhibitors of Cancer Stem Cells. [Related pubchem assays (depositor defined):AID2717, AID2721]; type: functional; conditions: Homo sapiens
[7] = Luminescence Cell-Based Dose Response HTS to Identify Inhibitors of 5'UTR Stem-Loop Driven Prion Protein mRNA Translation in H4 Neuroglioblastoma Cells. [Related pubchem assays: 1827 (Project Summary), 1813 (Primary HTS)]; type: functional
[8] = alpha-synuclein stem-loop luciferase translation blockers – H4 neuroglioma cells, luminescence, confirmation (AID 1988); type: functional, cell-based
[9] = luciferase reporter signal suppression in cells – H4 neuroglioma cells, luminescence, dose response (AID 1990); type: functional, cell-based
[10] = target: Cytochrome P450 2C9 (Homo sapiens, UniProt P11712)
Cytochrome P450 2C9, sequence (P11712 whole entry): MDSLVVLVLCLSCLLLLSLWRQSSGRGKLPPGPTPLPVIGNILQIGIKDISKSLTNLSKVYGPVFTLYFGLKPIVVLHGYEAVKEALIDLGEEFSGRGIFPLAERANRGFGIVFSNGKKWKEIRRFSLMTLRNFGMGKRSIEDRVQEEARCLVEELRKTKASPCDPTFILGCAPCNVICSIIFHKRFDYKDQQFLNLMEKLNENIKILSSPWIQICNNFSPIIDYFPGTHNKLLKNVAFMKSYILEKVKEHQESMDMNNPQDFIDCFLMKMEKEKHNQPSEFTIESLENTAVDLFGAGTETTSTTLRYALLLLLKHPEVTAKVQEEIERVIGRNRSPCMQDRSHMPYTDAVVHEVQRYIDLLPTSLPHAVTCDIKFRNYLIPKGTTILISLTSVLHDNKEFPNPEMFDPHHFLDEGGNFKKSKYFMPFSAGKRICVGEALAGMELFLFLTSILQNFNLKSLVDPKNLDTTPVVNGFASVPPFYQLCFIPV

[11] = target: Cytochrome P450 2C19 (Homo sapiens, UniProt P33261); test: Cytochrome panel assay with activity outcomes. Panel member name: p450-cyp2c19 Compounds with AC50 equal or less than 10 uM are considered active; type: functional
Cytochrome P450 2C19, sequence (P33261 whole entry): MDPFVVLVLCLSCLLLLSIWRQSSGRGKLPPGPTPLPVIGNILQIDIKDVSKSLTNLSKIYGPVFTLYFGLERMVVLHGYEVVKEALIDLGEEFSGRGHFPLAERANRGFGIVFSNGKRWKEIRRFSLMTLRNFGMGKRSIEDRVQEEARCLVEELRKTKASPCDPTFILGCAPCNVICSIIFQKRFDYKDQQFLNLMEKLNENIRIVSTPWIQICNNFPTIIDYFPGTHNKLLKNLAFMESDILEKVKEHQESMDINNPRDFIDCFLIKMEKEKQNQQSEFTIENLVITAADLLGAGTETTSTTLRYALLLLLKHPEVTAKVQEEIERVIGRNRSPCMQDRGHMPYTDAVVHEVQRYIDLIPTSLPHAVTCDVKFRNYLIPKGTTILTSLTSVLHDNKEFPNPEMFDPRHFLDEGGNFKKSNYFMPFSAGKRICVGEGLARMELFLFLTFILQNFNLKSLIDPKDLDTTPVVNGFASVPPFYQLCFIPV

[12] = NIH-3T3 fibroblast cytotoxicity, dose response, cytotoxicity control, cell-based, fluorescence, Alamar Blue, secondary assay (AID 2327); type: functional;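 note: NIH-3T3 mouse fibroblasts cultured with fluconazole at 8 µg/mL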

Cytochrome P450 3A4, sequence (P08684 whole entry): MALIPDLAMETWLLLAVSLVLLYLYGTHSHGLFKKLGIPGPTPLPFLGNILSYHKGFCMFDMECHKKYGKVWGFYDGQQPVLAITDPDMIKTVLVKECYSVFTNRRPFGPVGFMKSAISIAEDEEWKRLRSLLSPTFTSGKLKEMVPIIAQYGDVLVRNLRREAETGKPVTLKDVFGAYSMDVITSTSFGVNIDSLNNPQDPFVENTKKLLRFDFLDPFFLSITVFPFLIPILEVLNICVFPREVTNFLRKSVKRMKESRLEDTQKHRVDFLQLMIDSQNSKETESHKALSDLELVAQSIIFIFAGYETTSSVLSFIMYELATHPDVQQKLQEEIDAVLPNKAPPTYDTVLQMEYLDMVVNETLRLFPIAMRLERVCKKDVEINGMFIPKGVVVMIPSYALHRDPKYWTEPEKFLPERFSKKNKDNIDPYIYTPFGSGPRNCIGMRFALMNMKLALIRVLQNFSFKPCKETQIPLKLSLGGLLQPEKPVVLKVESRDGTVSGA

C[C@H](N)C1CCC(C(=O)Nc2ccncc2)CC1 (some centres undefined)
AC50 [1]: 15.8 µM (inconclusive) | AC50 [2]: 15.8 µM (inconclusive)

CCc1nnc(NC(=O)CSc2nnc(COc3cccc(C)c3)o2)s1
IC50 [3]: > 100 µM (inactive)

O=C(O)c1cc(-c2cccc3ccccc23)nc2ccccc12
IC50 [3]: > 100 µM (inactive) | EC50 [4]: > 195 µM (not active)

CCN(CC)S(=O)(=O)c1cccc(-c2nnc(SCC(=O)c3cc(C)n(C4CC4)c3C)o2)c1
IC50 [3]: > 100 µM (inactive)

O=C(Cn1c(-c2cscn2)nc2ccccc21)Nc1cc(F)ccc1F
AC50 [2]: 22.4 µM (inconclusive)

CCn1c(SCC(=O)Nc2ccc(NC(=O)c3cccs3)cc2)nnc1-c1cccnc1
IC50 [3]: > 100 µM (inactive)

O=C(CSc1c[nH]c2ccccc12)N1CCOCC1
AC50 [5]: 17.8 µM (inconclusive)

COc1cccc(Nc2ncc3nc(-c4cn(C)c5ccccc45)c(=O)n(CCC#N)c3n2)c1
AC50 [1]: 1.58 µM (inconclusive) | AC50 [5]: 20 µM (inconclusive)

c1ccc(CN2CC[C@@]3(CCCNC3)C2)cc1
AC50 [1]: 10 µM (inconclusive) | AC50 [2]: 15.8 µM (inconclusive)

c1ccc(CSc2nnc(-c3cccs3)o2)cc1
IC50 [3]: 30.2 µM (active)

CCC1=NN(C(=O)c2ccc(Cl)cc2)C(O)(c2ccc(C)cc2)C1 (centres undefined)
AC50 [6]: 4.64 µM (active)

Cc1ccc(-c2[nH]ncc2/C=C(\C#N)C(=O)NC2CCCCC2)cc1
EC50 [7]: 71.5 µM (active) | IC50 [3]: > 100 µM (inactive) | EC50 [8]: > 120 µM (not active)

COc1ccc(OC)c(-c2csc(N(CC3CCCO3)C(=O)C3CCCCC3)n2)c1 (centres undefined)
AC50 [6]: 3.5 µM (active)

O=C(COC(=O)c1cccc(S(=O)(=O)N2CCOCC2)c1)Nc1nc(-c2ccccc2Cl)cs1
AC50 [1]: 11.2 µM (inconclusive) | AC50 [5]: 8.91 µM (inconclusive)

O=C(NC1(C(F)(F)F)NC(=O)N(Cc2cccnc2)C1=O)c1ccccc1 (centres undefined)
EC50 [7]: > 120 µM (not active) | AC50 [1]: 0.891 µM (inconclusive) | EC50 [9]: > 120 µM (not active) | AC50 [10]: 17.8 µM (inconclusive) | EC50 [8]: > 120 µM (not active)

Cc1c(C)n(C)c2ccc(C(=O)NCCN3CCOCC3)cc12
IC50 [3]: > 100 µM (inactive)

O=C(NCc1nnc(S)n1-c1ccc(F)cc1)c1ccc(S(=O)(=O)N2CCOCC2)cc1
IC50 [3]: > 100 µM (inactive)

CN(Cc1ccc(-n2cccn2)cc1)C(=O)c1cnn2c1NC(c1ccco1)CC2C(F)(F)F (centres undefined)
EC50 [7]: > 120 µM (not active) | EC50 [9]: > 120 µM (not active) | EC50 [8]: 31.5 µM (active)

O=C(CSc1nnnn1-c1ccccc1)NCc1cccs1
AC50 [5]: 31.6 µM (inconclusive)

Cn1cccc1C(=O)N1CCC2(CCCN(Cc3ccc(C#N)cc3)C2)CC1
AC50 [1]: 15.8 µM (inconclusive) | AC50 [5]: 12.6 µM (inconclusive)

Brc1ccc(CSc2nnc(-c3cccnc3)o2)cc1
IC50 [3]: 54.5 µM (inactive)

CCOc1c2ccc(C(=O)NCc3ccc(OC(F)(F)F)cc3)cc2nn1CC
AC50 [10]: 39.8 µM (inconclusive) | AC50 ([11]; read-out: AC50): 39.8 µM (inconclusive) | AC50 [5]: 14.1 µM (inconclusive) | AC50 [2]: 25.1 µM (inconclusive)

N#C/C=C1\n2c(nc3ccccc32)OC12CCCCC2
EC50 [7]: > 120 µM (not active) | EC50 [9]: > 120 µM (not active) | EC50 [8]: > 120 µM (not active)

CC(=O)N1CCC2(CCCN(Cc3cc(C(F)(F)F)cc(C(F)(F)F)c3)C2)CC1
AC50 [1]: 15.8 µM (inconclusive) | AC50 [2]: 39.8 µM (inconclusive)

Cc1cc(C)n(CC(O)Cn2c(C)c(C)c3ccccc32)n1 (centres undefined)
IC50 [3]: > 100 µM (inactive)

Cc1cc(C(=O)Nc2nc3c(s2)CCCC3)cs1
AC50 [6]: 1.97 µM (active)

COc1ccc(C(=O)N2CCC3(CC2)CN(Cc2ccc(C#N)cc2)C3)cc1
AC50 [1]: 0.631 µM (inconclusive) | AC50 [2]: 12.6 µM (inconclusive)

Cc1ccccc1-c1cncnc1Nc1ccccc1
AC50 [2]: 39.8 µM (inconclusive)

Nc1nnnn1CCO
AC50 [5]: 6.31 µM (inconclusive)

O=C(Nc1ccccc1N1CCOCC1)c1ccc(S(=O)(=O)NCc2ccco2)cc1
EC50 [12]: > 150 µM (inactive)

COC(=O)CCC(=O)NNC(=O)c1ccc(Br)cc1
AC50 [5]: 11.2 µM (inconclusive)

O=C1COc2ccc(OCc3ccc(F)cc3)cc21
AC50 [5]: 7.08 µM (inconclusive)

CC(=O)Nc1nnc(CCN2CCCCC2)s1
AC50 [11]: inconclusive | AC50 [2]: 1.26 µM (inconclusive)

Cc1ccc(CSc2nc3c(c(=O)[nH]c(=O)n3C)n2CCC(C)C)cc1
EC50 [7]: 19.4 µM (active) | EC50 [9]: 24.8 µM (active) | EC50 [8]: 16.2 µM (active)

CCNc1ncc2nc(-c3cccc(C#N)c3)c(=O)n(C)c2n1
AC50 [1]: 31.6 µM (inconclusive) | AC50 [2]: 2 µM (inconclusive)

Cc1nn(-c2ccccc2)c2nc(N)c(C#N)c(-c3ccc(C(C)(C)C)cc3)c12
AC50 [6]: 2.14 µM (active)

Cc1cnc(CNc2ncnc3ccc(-c4ccccc4C(F)(F)F)cc23)cn1
AC50 ([11]; read-out: AC50): 20 µM (inconclusive) | AC50 [2]: 25.1 µM (inconclusive)

CC1(C)C[C@H](O)[C@]2(CO)[C@H](O)C[C@]3(C)C(=CCC4[C@@]5(C)CC[C@H](O)C(C)(C)C5CC[C@]43C)[C@@H]2C1 (some centres undefined)
AC50 [6]: 1.97 µM (active)

Cc1ccc(-c2csc(NCCn3c(-c4ccncc4)nc4cc(C(F)(F)F)ccc43)n2)cc1
AC50 [6]: 8 µM (active)

O=C(NCC1CCCO1)c1nn2c(c1Cl)NC(c1ccc(F)cc1)CC2C(F)(F)F (centres undefined)
AC50 [1]: 14.1 µM (inconclusive) | AC50 [5]: 12.6 µM (inconclusive)

Cc1ccc(S(=O)(=O)N2CCCC(C(=O)NCCCN3CCCCC3C)C2)cc1 (centres undefined)
AC50 [11]: inconclusive | AC50 [2]: 17.8 µM (inconclusive)

COc1ccc(CC2SC(N/N=C/c3ccccc3O)=NC2=O)cc1 (centres undefined)
AC50 [6]: 8.79 µM (active)

O=C(OCCN1CCOCC1)C1(c2ccccc2)CCCCC1
AC50 [10]: 10 µM (inconclusive) and 15.8 µM (inconclusive) | AC50 ([11]; read-out: AC50): 6.31 µM (inconclusive) and 10 µM (inconclusive) | AC50 [5]: 31.6 µM (inconclusive) | AC50 [2]: 12.6 µM (inconclusive) and 6.31 µM (inconclusive)

COc1cc(C(=O)N/N=C(\Cc2ncc[nH]2)c2ccccc2)cc(OC)c1OC
AC50 [6]: 2.89 µM (active)

CN(C)c1ccc(/N=C/c2cccn2C)cc1
EC50 [12]: 25.9 µM (active)

Cc1ccc(-c2nnc(S)n2/N=C/c2cccn2C)cc1
AC50 [2]: 5.01 µM (inconclusive)

CCN1C(=O)/C(=C\c2ccncc2)S/C1=N\c1ccc(C)c(C)c1
AC50 [6]: 3.77 µM (active)

O=C1C=CC(=O)c2c1ccc1c2ccc2ccccc21
AC50 [2]: 5.01 µM (inconclusive)
